Laboratory results as given in the NIST ThermoML archive (doi:10.1021/acs.jced.8b00399).

Experiment: mn = molality of the nth substance listed, in mol/kg
Settings: 99.6 kPa, Liquid; for viscosity: Capillary tube (Ostwald / Ubbelohde) method; for mass density: Vibrating tube method

CNC(C)=O [N-methylacetamide] + [Cl-].[Cl-].[Zn+2]
Settings	mass density, 308.15 K [kg/m3]	mass density, 313.15 K [kg/m3]	mass density, 318.15 K [kg/m3]	mass density, 323.15 K [kg/m3]	mass density, 328.15 K [kg/m3]	viscosity, 308.15 K [mPa·s]	viscosity, 313.15 K [mPa·s]	viscosity, 318.15 K [mPa·s]	viscosity, 323.15 K [mPa·s]	viscosity, 328.15 K [mPa·s]
m2 = 0	946.01	941.81	937.59	933.36	929.17	3.57	3.152	2.8	2.496	2.245
m2 = 0.01212	947.01	942.99	938.78	934.4	930.23	3.595	3.169	2.819	2.512	2.26
m2 = 0.02085	948.03	943.83	939.63	935.24	931.05	3.615	3.186	2.834	2.528	2.271
m2 = 0.04092	949.55	945.27	941.06	936.82	932.75	3.653	3.223	2.868	2.558	2.296
m2 = 0.04735	950.23	946.04	941.77	937.56	933.2	3.669	3.232	2.876	2.566	2.304
m2 = 0.05898	951.13	946.91	942.72	938.63	934.26	3.698	3.255	2.895	2.584	2.319
m2 = 0.06108	951.43	947.18	942.96	938.78	934.52	3.703	3.262	2.9	2.586	2.322
m2 = 0.07786	952.85	948.65	944.45	940.25	935.97	3.743	3.293	2.928	2.612	2.344
m2 = 0.09351	954.27	949.99	945.73	941.52	937.33	3.778	3.324	2.955	2.635	2.364
m2 = 0.1025	955.14	950.92	946.63	942.41	938.12	3.797	3.347	2.972	2.652	2.378
m2 = 0.1083	955.59	951.41	947.14	942.93	938.6	3.81	3.354	2.982	2.659	2.384
m2 = 0.1702	961.31	957.1	952.84	948.64	944.4	3.964	3.495	3.099	2.765	2.475
m2 = 0.2236	966.13	961.88	957.61	953.37	949.14	4.112	3.611	3.202	2.854	2.553
m2 = 0.372	979.32	975.11	970.87	966.57	962.36	4.544	3.97	3.516	3.132	2.795
m2 = 0.6919	1007.77	1003.5	999.23	994.92	990.69	5.686	4.929	4.32	3.82	3.381
m2 = 1.299	1060.68	1056.36	1052	1047.7	1043.43	8.811	7.487	6.416	5.603	4.9
